Patent publication US20230125810A1, “DESIGNED BACTERIAL COMPOSITIONS AND USES THEREOF” (Seres Therapeutics, Inc., priority 2019, published 2023)
Where two headings read alike, the source gives them in different places.

Tests used:
[1] = test system: AhR-mediated cyp1a1 expression; assay: AhR-mediated cyp1a1 expression in epithelial colonic organoids
Procedure: In FIG. 7A, the metabolites (3-indole acetic acid, 3-methylindole, indole, indoleacrylate, 3-indole butyric acid, and indolepropionic acid, IPA) were added at three different concentrations (50, 100, and 200 μM), with increasing concentrations from right to left. Untreated epithelial organoids (Untd) were used as a negative control. In FIG. 7B, supernatants were collected from cultures containing different bacteria (Clostridium sporogenes 1, Clostridium sporogenes 2, Peptostreptococcus stomatis, Clostridium glycolicum, Bacteroides sp. 4 1 36) and were provided to the epithelial organoids at two different concentrations (5% and 2% final concentration), with the left bar corresponding to the higher concentration. The SCFAs and tryptophan metabolites present in each supernatant (from FIGS. 17 and 18) are indicated. IPA: indolepropionic acid; IAcryl: Indole acrylate; 3Mind: 3-methylindole; I3Carb: indole-3-carbinol; C3: propionate; C4: butyrate; C5: valerate; C6: hexanoate; BCFA: branch chain fatty acids.
AhR activation is reportedly associated with strengthening of the intestinal epithelial barrier and mucosal homeostasis in the intestine by inducing broad changes in gene expression. […] An increase in Cyp1a1 expression is considered to be a specific measure of AhR-mediated gene expression.

[2] = test system: TNF-α-driven IL-8 secretion by HT29 epithelial cells; assay: Anti-inflammatory assay in IECs (TNF-α-driven IL-8 secretion); assay type: cell-based, human; details: 1 hour pre-treatment
[3] = test system: primary human colon epithelial cell monolayer; assay: Primary epithelial cell monolayer barrier integrity assay (IFN-γ, FITC-dextran); details: 5 mM
Procedure: The assays were performed using a primary epithelial cell monolayer barrier integrity assay. […] The addition of interferon-gamma (IFN-γ) disrupts the tight junctions of the epithelial monolayer and induces apoptosis of epithelial cells. The leakiness of the membrane can be assessed by adding FITC-dextran to the apical side of the apparatus and measuring how rapidly it can pass to the basolateral compartment. A leaky monolayer will allow FITC-dextran to the basal side of the apparatus more quickly than a monolayer with an intact monolayer.
Briefly, the barrier integrity assay was conducted as follows. Primary human colon organoid cultures established from isolated colon crypts were grown and expanded in Matrigel® (Corning) and 50% L-cell conditioned medium containing Wnt3a, R-spondin 3 and Noggin (L-WRN) as described by VanDussen et al. containing 10 uM Y-27632 and 10 uM SB43152 (Gut 64:911-920, 2015). […] After the 48-hour incubation, colonic epithelial monolayer permeability was assessed by adding 10 μL of 10 ng/ml FITC-Dextran (4 kDa, Sigma) to the apical interface, the organoids were incubated for 1 hour and then 100 μL of medium was collected from the basolateral compartment of each transwell and transferred to a 96 well plate for fluorescence detection.

[4] = test system: clinical remission of ulcerative colitis; assay type: in vivo, human; details: UC patients treated with HHSP
[5] = test system: HDAC enzymes (HeLa nuclear extract); assay: HDAC inhibition assay (HDAC-Glo I/II, HeLa nuclear extract); assay type: biochemical; details: for HDAC Inhibition in any C source (25/18% cutoff): single strain supernatants, PY medium with one of seven C sources
[6] = GC-MS of SCFAs, MCFAs, BCFAs and tryptophan metabolites in bacterial supernatants; details: single strain supernatants
From the text: FIG. 18 provides a table listing bacterial species and the short chain fatty acids (SCFAs), medium chain fatty acids (MCFAs), and branched chain fatty acids (BCFAs) produced by each of the species. […] The limit of detection for each of the fatty acids is provided in the row labeled “Limit of Detection (LOD).” The SCFAs measured included: acetic acid, propanoic acid, and butanoic acid. The MCFAs measured included: pentanoic acid, hexanoic acid, heptanoic acid. The BCFAs measured included: 2-methyl-propanopic acid, 3-methyl-butanoic acid, and 4-methyl-pentaoic acid.
FIG. 19 provides a table listing bacterial species and tryptophan metabolites produced by the species. […] The limit of detection for each of the fatty acids is provided in the row labeled “Limit of Detection (LOD).” The tryptophan metabolites measured included: indole, 3-methylindole, indol-3-propanoic acid, indole-3-butyric acid, 3-indoleacrylic acid, tryptamine, indole-3-acetic acid, 3-indole-glycoxylic acid, 2-picolinic acid, and 5-hydroxytryptamine.
As described supra, certain tryptophan (Trp) metabolites were associated with remission in patients treated with an HHSP. […] The presence of the tryptophan metabolites was determined using a colorimetric assay for detection of indolic compounds (Indole Reagent, Anaerob Systems). […]

[7] = intestinal epithelial organoids

O=C(O)Cc1c[nH]c2ccccc12 [3-indole acetic acid]
AhR-mediated cyp1a1 expression [1, 7]: induced AhR-mediated cyp1a1 expression

Cc1c[nH]c2ccccc12 [3-methylindole]
AhR-mediated cyp1a1 expression ([1]; human): induced AhR-mediated cyp1a1 expression

CC(=O)O [acetate]
TNF-α-dependent IL-8 secretion by IECs [2]: reduced levels of TNF-α-dependent IL-8 secretion

CCCC(=O)O [butyrate]
decrease of permeability [3]: 50%

c1ccc2[nH]ccc2c1 [indole]
AhR-mediated cyp1a1 expression [1, 7]: induced AhR-mediated cyp1a1 expression

O=C(O)/C=C/c1c[nH]c2ccccc12 [indoleacrylate]
AhR-mediated cyp1a1 expression [1, 7]: induced AhR-mediated cyp1a1 expression

CCC(=O)O [propionate]
TNF-α-dependent IL-8 secretion by IECs [2]: reduced levels of TNF-α-dependent IL-8 secretion

Clostridium bolteae
Associated Clinical Outcome [4]: Remitter

Clostridium clostridioforme
HDAC cluster assignment [5]: 6
HDAC Inhibition in any C source (25/18% cutoff) [5]: 1 (If a strain exhibits HDACi activity of at least 0.25 in any nutrient, or 0.18 in fucose, it is considered to have HDACi activity and it is marked with “1”)

Clostridium disporicum
HDAC cluster assignment [5]: 0
HDAC Inhibition in any C source (25/18% cutoff) [5]: 1 (If a strain exhibits HDACi activity of at least 0.25 in any nutrient, or 0.18 in fucose, it is considered to have HDACi activity and it is marked with “1”)

Clostridium glycolicum
hexanoate production [6]: Hexanoate producing

Clostridium mayombei
HDAC cluster assignment [5]: 2
HDAC Inhibition in any C source (25/18% cutoff) [5]: 1 (If a strain exhibits HDACi activity of at least 0.25 in any nutrient, or 0.18 in fucose, it is considered to have HDACi activity and it is marked with “1”)

Clostridium sp 7 2 43FAA
HDAC cluster assignment ([5]; pattern of HDAC inhibition across nutrient sources): 5
HDAC Inhibition in any C source (25/18% cutoff) [5]: 1 (If a strain exhibits HDACi activity of at least 0.25 in any nutrient, or 0.18 in fucose, it is considered to have HDACi activity and it is marked with “1”)

Clostridium symbiosum
Associated Clinical Outcome [4]: Remitter

Clostridium tertium
HDAC cluster assignment [5]: 5
HDAC Inhibition in any C source (25/18% cutoff) [5]: 1 (If a strain exhibits HDACi activity of at least 0.25 in any nutrient, or 0.18 in fucose, it is considered to have HDACi activity and it is marked with “1”)

Parabacteroides distasonis
HDAC cluster assignment [5]: 3
HDAC Inhibition in any C source (25/18% cutoff) [5]: 1 (If a strain exhibits HDACi activity of at least 0.25 in any nutrient, or 0.18 in fucose, it is considered to have HDACi activity and it is marked with “1”)
